Tests used:
[1] = test system: panel of cancer cell lines; assay: Growth inhibition assay, whole panel; type: cell-based, human; conditions: 20 μM, 72 h
Experimental: (§1) The compounds were screened in a growth inhibition assay at 20 μM over a 72 h period in a panel of cancer cell lines (lung-A549; pancreatic-Aspc1; colon-HT29; breast-MDAMB231; prostate-PC3; ovarian-SKOV3 and bone-U2OS) and the results are summarized in Table 2. […] This size effect was also observed with the urea compounds from the secondary amine (6j vs. 6l and 6k vs. 6m).
(§2) Cell Growth Inhibition Assay. Human lung A549, human pancreatic AsPC1, human colorectal HT-29, human breast MDA-MB-231, human prostate PC3, human ovarian SKOV3, and human osteosarcoma U2OS tumor cell lines were cultured in basal media containing 10% FBS and maintained in a 37° C. incubator with 5% CO2. All compounds were screened in 96 well microtiter plate format. In general, each cell line was plated at optimal assay density in 95 μl of propagation media in 96 well plates and incubated overnight. The next day, a standard alamar blue assay was performed (see below) on representative wells of each cell line for a Tz calculation. Subsequently, cells were treated in duplicate with a 5 μl volume of either vehicle only, positive controls etoposide and taxol, or test compounds at 20 μM (highest soluble compound concentration). The treated cells were incubated for 72 h and then assayed for growth by alamar blue assay. Briefly, 10 μl of reagent was added to each well and the plates returned to 37° C. After 3 h, fluorescence at 544ex/590em was measured using a SpectraMax M5 (Molecular Devices) plate reader. Growth is represented as a percentage of the control cells that were treated with vehicle only and % growth inhibition was determined using the NCI algorithm: Tz=number of untreated cells at zero time, C=Number of control cells at 72 h time, and T=number of compound treated cells at 72 h time; 100*([T−Tz]/[C−Tz]).

[2] = test system: human breast MDA-MB-231 tumor cell line; assay: Cell growth inhibition assay (alamar blue); type: cell-based; conditions: MDA-MB-231, 20 μM, 72 h
Experimental: as §1, §2

[3] = test system: human pancreatic AsPC1 tumor cell line; assay: Cell growth inhibition assay (alamar blue); type: cell-based; conditions: AsPC1, 20 μM, 72 h
Experimental: as §1, §2

[4] = test system: human osteosarcoma U2OS tumor cell line; assay: Cell growth inhibition assay (alamar blue); type: cell-based; conditions: 72 h
Experimental: as §1, §2

[5] = test system: human prostate PC3 tumor cell line; assay: Cell growth inhibition assay (alamar blue); type: cell-based; conditions: PC3, 20 μM, 72 h
Experimental: as §1, §2

[6] = test system: human colorectal HT-29 tumor cell line; assay: Cell growth inhibition assay (alamar blue); type: cell-based; conditions: HT29, 20 μM, 72 h
Experimental: as §1, §2

[7] = test system: human lung A549 tumor cell line; assay: Cell growth inhibition assay (alamar blue); type: cell-based; conditions: A549, 20 μM, 72 h
Experimental: as §1, §2

[8] = test system: human ovarian SKOV3 tumor cell line; assay: Cell growth inhibition assay (alamar blue); type: cell-based; conditions: SKOV3, 20 μM, 72 h
Experimental: as §1, §2

SMILES | growth inhibition of the various cancer cell lines (in words) [1] | % Growth inhibition at 20 μM [2] | % Growth inhibition at 20 μM [3] | % Growth inhibition at 20 μM [4] | % Growth inhibition at 20 μM [5] | % Growth inhibition at 20 μM [6] | % Growth inhibition at 20 μM [7] | % Growth inhibition at 20 μM [8]
CC(=O)Nc1ccc2nc(C)c(C)nc2c1 [5a] | inhibited growth | 25.7 ± 5.1% | 26.2 ± 2.8% | 31.4 ± 3.6% | 21.8 ± 15.1% | 31.7 ± 2.8% | 23.4 ± 3.3% | 4.0 ± 3.6%
O=C(Nc1ccc(Cl)cc1)Nc1ccc2nc(-c3ccco3)c(-c3ccco3)nc2c1 [7b] | – | 92.5 ± 6.6% | 81.1 ± 2.0% | 87.4 ± 1.1% | 86.4 ± 1.1% | 86.3 ± 7.7% | 99.2 ± 5.2% | 55.8 ± 24.1%
O=C(Nc1ccccc1)Nc1ccc2nc(-c3ccccc3)c(-c3ccccc3)nc2c1 [5h] | – | Inactive | Inactive | Inactive | Inactive | Inactive | Inactive | Inactive
S=C(Nc1ccccc1)Nc1ccc2nc(-c3ccccc3)c(-c3ccccc3)nc2c1 [6c] | – | Inactive | Inactive | Inactive | Inactive | Inactive | Inactive | Inactive
O=[N+]([O-])c1ccc(NC(=S)Nc2ccc3nc(-c4ccccc4)c(-c4ccccc4)nc3c2)cc1 [6f] | – | 72.6 ± 0.7% | 55.5 ± 25.4% | 76.1 ± 0.4% | 81.0 ± 8.5% | 81.2 ± 0.7% | 16.6 ± 11.2% | 55.8 ± 30.7%
S=C(Nc1ccccc1)Nc1ccc2nc(-c3ccco3)c(-c3ccco3)nc2c1 [6a] | active | 19.1 ± 12.5% | Inactive | 21.4 ± 8.4% | 56.8 ± 1.4% | 26.1 ± 15.0% | 18.0 ± 0.1% | Inactive
Cc1ccc(S(=O)(=O)N(c2ccc3nc(-c4cccs4)c(-c4cccs4)nc3c2)S(=O)(=O)c2ccc(C)cc2)cc1 [5k] | – | Inactive | Inactive | Inactive | Inactive | Inactive | Inactive | Inactive
Cc1ccc(S(=O)(=O)N(c2ccc3nc(-c4ccco4)c(-c4ccco4)nc3c2)S(=O)(=O)c2ccc(C)cc2)cc1 [5j] | – | Inactive | Inactive | Inactive | Inactive | Inactive | Inactive | Inactive
Cc1nc2ccc(NC(=O)Nc3ccccc3)cc2nc1C [5e] | – | Inactive | Inactive | Inactive | Inactive | Inactive | Inactive | Inactive
S=C(Nc1ccccc1)Nc1ccc2nc(-c3cccs3)c(-c3cccs3)nc2c1 [6b] | – | Inactive | Inactive | Inactive | Inactive | Inactive | Inactive | Inactive
Cc1ccc(S(=O)(=O)Nc2ccc3nc(-c4ccccc4)c(-c4ccccc4)nc3c2)cc1 [5l] | – | Inactive | Inactive | Inactive | Inactive | Inactive | Inactive | Inactive
O=[N+]([O-])c1ccc(NC(=S)Nc2ccc3nc(-c4cccs4)c(-c4cccs4)nc3c2)cc1 [6e] | – | 53.3 ± 7.2% | Inactive | 50.6 ± 3.9% | 19.5 ± 37.4% | 23.9 ± 27.8% | Inactive | Inactive
O=C(Nc1ccc(F)cc1)Nc1ccc2nc(-c3ccco3)c(-c3ccco3)nc2c1 [7a] | – | 38.4 ± 2.7% | >100% | 55.6 ± 6.6% | 90.7 ± 4.1% | 74.2 ± 5.2% | >100% | Inactive
Cc1nc2ccc(NC(=O)N3CCCC3)cc2nc1C [6g] | – | Inactive | Inactive | Inactive | Inactive | Inactive | Inactive | Inactive
Cc1nc2ccc(NC(=O)N3CCCCC3)cc2nc1C [6l] | – | Inactive | Inactive | Inactive | Inactive | Inactive | Inactive | Inactive
CC(=O)Nc1ccc2nc(-c3cccs3)c(-c3cccs3)nc2c1 [5c] | – | Inactive | Inactive | Inactive | Inactive | Inactive | Inactive | Inactive
O=C(Nc1ccc(-c2ccccc2)cc1)Nc1ccc2nc(-c3ccco3)c(-c3ccco3)nc2c1 [7d] | – | 50.2 ± 8.9% | Inactive | 46.9 ± 7.4% | 88.5 ± 1.9% | 72.4 ± 7.6% | 13.8 ± 9.8% | Inactive
O=C(Nc1ccccc1)Nc1ccc2nc(-c3cccs3)c(-c3cccs3)nc2c1 [5g] | – | Inactive | Inactive | Inactive | Inactive | Inactive | Inactive | Inactive
CC(=O)Nc1ccc2nc(-c3ccccc3)c(-c3ccccc3)nc2c1 [5d] | – | Inactive | Inactive | Inactive | Inactive | Inactive | Inactive | Inactive
Cc1nc2ccc(NC(=O)N3CCC(Cc4ccccc4)CC3)cc2nc1C [6j] | – | 12.4 ± 5.0% | Inactive | 33.5 ± 0.4% | 30.6 ± 11.6% | 16.3 ± 10.1% | 40.3 ± 1.9% | 8.9 ± 5.1%
O=C(Nc1ccc2nc(-c3ccccc3)c(-c3ccccc3)nc2c1)N1CCCC1 [6i] | – | 16.7 ± 3.9% | 29.4 ± 9.8% | 54.2 ± 2.2% | 56.9 ± 2.7% | Inactive | 11.0 ± 1.3% | 18.5 ± 4.3%
